In this series the test system is mouse liver microsomes, percent remaining, LC-MS/MS. In words: Inhibitors of N370S glucocerebrosidase as a Potential Chaperone Treatment of Gaucher Disease: Metabolic Stability Profile. To be noted: at 5 µM; active compounds read high. The text has this: Glucocerebrosidase (GC) catalyzes the hydrolysis of beta-glucocerebroside to glucose and ceramide in lysosomes. Mutations in the glucocerebrosidase gene result in Gaucher disease, an autosomal recessive lysosomal storage disorder. Many of the mutations encountered in patients with Gaucher disease are missense alterations that may cause misfolding, decreased stability and/or mistrafficking of this lysosomal protein. […] These inhibitors include iminosugar analogs and three non-iminosugar inhibitors identified from a previous HTS of 62,000 compounds with the wild type recombinant enzyme. After further testing a probe has been identified and was characterized though AMDE tests. Mouse liver microsomes are created through broken up endoplasmic reticulum from mouse liver. These liver microsomes contain many drug metabolizing enzymes, such as Cytochome P-450s and flavin-containing monooxygenases. […] NIH Chemical Genomics Center [NCGC] NIH Molecular Libraries Probe Production Centers Network [MLPCN] MLPCN Grant: MH086442-01 Assay Submitter (PI): Wei Zheng
5uM of compound is incubated with mouse liver microsome; the reference compounds are verapamil and warfarin. Compounds are incubated and samples are analyzed with LC-MS/MS.

Molecules are shown by their SMILES.

Regarding `S=C(NCCCc1cnc[nH]1)NCCCN(Cc1ccc(Cl)c(Cl)c1)c1ccc(Br)cn1`, the percent remaining is 102%.

These data come from PubChem BioAssay AID504748 (National Center for Advancing Translational Sciences (NCATS), 2011).
